From PMC9127750, “Structure-based design of CDC42 effector interaction inhibitors for the treatment of cancer” (Cell reports, 2022)
Several values for one entry are separate records, joined by “and”; a condition that tells them apart may be missing. Equal values may be shown once.

System: WM3248 melanoma cells, 486 antibodies
Test: Reverse phase protein arrays (RPPA)
Type: cell-based, Human
Excerpt: Pellets were snap frozen in liquid nitrogen and shipped to MD Anderson Cancer Center core RPPA facility for RPPA analysis (Table S5). Three biological replicates for each sample were generated.
Nomenclatures on the RPPA heatmaps: name_of_antibody.species_of_antibody.status_of_antibody. V - antibody validated; C - validation of antibody in progress; Q - antibody nonspecific; E – under evaluation; antibodies raised in M - mouse, G - goat, R - rabbit, or T - rat.

[1] = Norm_20: replicates 1-3 and Average, relative to 0
[2] = Norm_20, replicates 1-3 and Average, relative to Norm_0

## CN(C)c1cccc(Nc2cc(-c3ccccc3)nc(C3CCNCC3)n2)c1 [ARN22089, N1,N1-dimethyl-N3-(6-phenyl-2-(piperidin-4-yl)pyrimidin-4-yl)benzene-1,3-diamine]
[1]
  Shc_pY317.R.C normalized RPPA signal: 0.757 and 1.584 and 1.301 and 1.214
  Slfn11.G.C normalized RPPA signal: 1.108 and 1.363 and 1.188
  Smac.M.Q normalized RPPA signal: 0.931 and 0.960 and 0.983 and 0.958
  Smad1.R.V normalized RPPA signal: 0.987 and 0.977 and 1.047 and 1.004
  Smad3.R.V normalized RPPA signal: 1.165 and 1.119 and 1.154
  Smad4.R.V normalized RPPA signal: 1.296 and 1.077 and 0.835
  Snail.M.Q normalized RPPA signal: 0.600 and 0.686 and 0.609 and 0.632
  Sox2.R.V normalized RPPA signal: 1.375 and 1.408 and 0.996 and 1.260
  Sox17.R.V normalized RPPA signal: 0.910 and 0.971 and 1.024 and 0.968
  Src.M.V normalized RPPA signal: 0.856 and 0.994 and 0.844 and 0.898
  Src_pY416.R.V normalized RPPA signal: 0.922 and 0.983 and 0.992
  Src_pY527.R.V normalized RPPA signal: 1.101 and 1.696 and 1.289
  Stat1_pY701.R.V normalized RPPA signal: 0.978 and 0.992 and 1.003
  Stat3.R.C normalized RPPA signal: 0.916 and 0.933 and 0.984 and 0.944
  Stat3_pY705.R.C normalized RPPA signal: 1.624 and 1.373 and 1.082 and 1.360
  Stat5a.R.V normalized RPPA signal: 0.918 and 1.001 and 1.032
  Stathmin.1.R.V normalized RPPA signal: 1.002 and 0.917 and 0.896 and 0.939
  Syk.M.V normalized RPPA signal: 0.729 and 0.896 and 0.950 and 0.859
  Synaptophysin.R.C normalized RPPA signal: 1.010 and 0.835 and 0.914 and 0.920
  TAZ.R.V normalized RPPA signal: 0.593 and 0.609 and 0.746
  TEAD.R.C normalized RPPA signal: 0.753 and 0.847 and 1.189 and 0.929
  TFAM.R.V normalized RPPA signal: 1.017 and 0.908 and 0.988
  TFRC.R.V normalized RPPA signal: 0.954 and 0.936 and 0.905
  TIGAR.R.V normalized RPPA signal: 1.016 and 1.029 (2×)
  TRAP1.M.V normalized RPPA signal: 0.880 and 0.858 and 0.987 and 0.908
  TRIM24.R.C normalized RPPA signal: 0.971 and 1.220 and 0.935
  TRIM25.R.C normalized RPPA signal: 0.761 and 0.842 and 1.250
  TRIP13.R.V normalized RPPA signal: 0.937 and 1.026 and 0.990 and 0.984
  Tau.M.C normalized RPPA signal: 1.361 and 0.904 and 1.112
  Transglutaminase.M.V normalized RPPA signal: 0.939 and 1.702 and 2.431 and 1.691
[2]
  A.Raf.R.V RPPA signal, normalized: 1.150 and 0.931 and 1.016
  A.Raf_pS299.R.C RPPA signal, normalized: 0.948 and 1.046 and 0.962 and 0.985
  ACC1.R.C RPPA signal, normalized: 0.841 and 0.807 and 0.895
  ACC_pS79.R.V RPPA signal, normalized: 1.085 and 0.894 and 1.442 and 1.140
  ACLY_pS455.R.V RPPA signal, normalized: 0.968 and 1.117 and 1.143 and 1.076
  ACSL1.R.V RPPA signal, normalized: 0.997 and 1.027 and 1.096
  ACVRL1.R.C RPPA signal, normalized: 0.959 and 0.966 and 0.988
  ADAR1.M.V RPPA signal, normalized: 1.103 and 1.393 and 0.980 and 1.159
  ALKBH5.R.V RPPA signal, normalized: 1.265 and 1.161 and 1.050 and 1.159
  AMPK.a2_pS345.R.V RPPA signal, normalized: 0.925 and 1.020 and 1.006
  AMPKa.R.C RPPA signal, normalized: 0.976 and 1.132 and 1.050
  AMPKa_pT172.R.C RPPA signal, normalized: 1.665 and 1.252 and 2.191 and 1.703
  AR.R.V RPPA signal, normalized: 1.167 and 0.791 and 1.202 and 1.053
  ARID1A.R.C RPPA signal, normalized: 2.135 and 2.023 and 0.945 and 1.701
  ASNS.R.V RPPA signal, normalized: 1.259 and 1.098 (2×)
  ATM.R.V RPPA signal, normalized: 0.728 and 0.823 and 1.123 and 0.891
  ATM_pS1981.R.V RPPA signal, normalized: 0.946 and 1.124 and 1.011 and 1.027
  ATP5A.M.C RPPA signal, normalized: 1.004 and 1.426 and 2.191 and 1.541
  ATP5H.R.V RPPA signal, normalized: 1.249 and 1.351 and 1.098 and 1.232
  ATR.R.V RPPA signal, normalized: 0.925 and 0.998 and 0.989
  ATRX.R.C RPPA signal, normalized: 0.884 and 1.433 and 1.198 and 1.172
  ATR_pS428.R.C RPPA signal, normalized: 0.919 and 0.961 and 1.020
  AceCS1.R.V RPPA signal, normalized: 1.098 and 1.011 and 1.293 and 1.134
  Akt1.R.V RPPA signal, normalized: 0.716 and 0.687 and 1.263 and 0.889
  Akt1_pS473.R.V RPPA signal, normalized: 0.845 and 0.816 and 0.918
  Akt2.R.V RPPA signal, normalized: 0.702 and 0.698 and 0.824
  Akt2_pS474.R.C RPPA signal, normalized: 0.820 and 1.141 and 0.958
  Akt.R.V RPPA signal, normalized: 0.842 and 0.873 and 1.113 and 0.943
  Akt_pS473.R.V RPPA signal, normalized: 0.693 and 1.281 and 1.006
  Akt_pT308.R.V RPPA signal, normalized: 1.208 and 0.954 and 1.057
  Ambra1_pS52.R.C RPPA signal, normalized: 0.983 and 1.063 and 0.981 and 1.009
  Annexin.I.M.V RPPA signal, normalized: 0.955 and 0.906 and 1.304 and 1.055
  Annexin.VII.M.V RPPA signal, normalized: 0.988 and 0.859 and 0.972
  Atg3.R.V RPPA signal, normalized: 1.054 and 0.860 and 1.003 and 0.972
  Atg4B.R.C RPPA signal, normalized: 0.929 and 1.167 and 0.972 and 1.023
  Atg5.R.C RPPA signal, normalized: 1.021 and 0.787 and 1.106 and 0.971
  Atg7.R.V RPPA signal, normalized: 0.883 and 0.847 and 0.979 and 0.903
  Aurora.A.R.C RPPA signal, normalized: 1.019 and 1.110 and 1.013
  Aurora.ABC_pT288_pT232_pT198.R.C RPPA signal, normalized: 0.769 and 0.934
  Aurora.B.R.V RPPA signal, normalized: 1.525 and 1.546 and 1.302 and 1.458
  Axl.R.V RPPA signal, normalized: 0.924 and 0.799 and 1.335 and 1.019
  B7.H3.R.C RPPA signal, normalized: 1.111 and 0.745 and 0.965 and 0.940
  B7.H4.R.C RPPA signal, normalized: 0.904 and 0.914 and 0.952
  B.Raf.R.C RPPA signal, normalized: 0.818 and 0.836 and 1.274 and 0.976
  B.Raf_pS445.R.V RPPA signal, normalized: 0.809 and 0.807 and 1.065 and 0.893
  BAP1.M.V RPPA signal, normalized: 0.987 and 0.925 and 1.001
  BCL2A1.R.V RPPA signal, normalized: 0.937 and 1.262 and 1.127
  BMK1.Erk5_pT218_Y220.R.V RPPA signal, normalized: 0.876 and 0.918 and 0.861 and 0.885
  BRCA1.M.C RPPA signal, normalized: 1.226 and 1.030 and 1.116
  BRD4.R.V RPPA signal, normalized: 1.775 and 1.486 and 0.963 and 1.408
  Bad_pS112.R.V RPPA signal, normalized: 1.169
  Bak.R.C RPPA signal, normalized: 1.030 and 0.930 and 1.021 and 0.994
